Laboratory results taken from US20210147343A1 (priority 2018, published 2021).
Where two headings read alike, the source gives them in different places.

Key:
[1] = target: T1, mu opioid receptor (MOR) (Homo sapiens, UniProt P35372); assay: MOR cAMP antagonist assay; format: cell-based; set-up: host or cells: CHO-K1
Description: MOR cAMP Antagonist Assay

[2] = target: T1, mu opioid receptor (MOR); assay: MOR GTPγS agonist assay; format: biochemical; set-up: host or cells: CHO-K1; details: membranes of CHO cells over-expressing MOR; SPA beads; read-out: MOR GTPγS EC50
Description: Membranes obtained from the stable cell lines over-expressing MOR were subjected to GTPγS assay using SPA beads (Perkin Elmer, Cat #RPNQ0001).

[3] = target: T1, mu opioid receptor (MOR); assay: MOR cAMP agonist assay
[4] = target: T2, kappa opioid receptor (KOR) (Homo sapiens, UniProt P41145); assay: cell-based; details: after activation with dynorphin B
T2 construct: host or cells: CHO-K1
T2 sequence (P41145 whole entry): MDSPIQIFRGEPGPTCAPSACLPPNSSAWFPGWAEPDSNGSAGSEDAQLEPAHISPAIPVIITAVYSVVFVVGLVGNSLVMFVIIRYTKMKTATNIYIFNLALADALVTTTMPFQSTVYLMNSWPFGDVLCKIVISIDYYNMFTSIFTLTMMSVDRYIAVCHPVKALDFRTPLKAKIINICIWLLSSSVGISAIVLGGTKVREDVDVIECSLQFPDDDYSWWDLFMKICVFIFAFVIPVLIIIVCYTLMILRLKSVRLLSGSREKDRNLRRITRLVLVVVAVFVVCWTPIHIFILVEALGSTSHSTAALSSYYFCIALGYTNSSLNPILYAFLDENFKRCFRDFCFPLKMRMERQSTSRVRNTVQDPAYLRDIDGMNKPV
Description: KOR cAMP Antagonist Assay

[5] = read-out: mOR cAMP EC50, CHO-K1 cells stably expressing mOR, cAMP levels
[6] = CHO-K1 cells expressing kOR, read-out: kOR cAMP IC50
[7] = kOR cAMP IC50, CHO-K1 cells expressing kOR

T1 sequence (P35372 whole entry): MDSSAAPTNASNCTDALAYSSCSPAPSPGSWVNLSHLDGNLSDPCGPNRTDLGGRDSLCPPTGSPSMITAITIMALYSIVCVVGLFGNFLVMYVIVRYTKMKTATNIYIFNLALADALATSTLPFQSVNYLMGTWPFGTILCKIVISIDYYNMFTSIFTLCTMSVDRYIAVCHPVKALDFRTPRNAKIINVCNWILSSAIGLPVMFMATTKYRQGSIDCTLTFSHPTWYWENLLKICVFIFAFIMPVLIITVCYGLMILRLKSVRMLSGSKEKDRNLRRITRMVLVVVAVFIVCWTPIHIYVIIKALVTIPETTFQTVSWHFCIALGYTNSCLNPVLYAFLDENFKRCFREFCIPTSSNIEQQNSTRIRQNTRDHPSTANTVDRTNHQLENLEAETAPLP

Structure (SMILES): O=C(NC[C@H](Cc1ccc2[nH]ncc2c1)N1CCCC1)c1ccc(Cl)c(Cl)c1 [Compound C-59, (S)—N-(3-(1H-indazol-5-yl)-2-(pyrrolidin-1-yl)propyl)-3,4-dichlorobenzamide]
- IC50 [1]: < 100 nM
- EC50 [2]: 100 to 1000 nM

Structure (SMILES): CN(C)[C@H](CNC(=O)c1ccc(Cl)c(Cl)c1)Cc1ccc(O)c(Cl)c1 [Compound C-61, (S)-3,4-dichloro-N-(3-(3-chloro-4-hydroxyphenyl)-2-(dimethylamino)propyl)benzamide]
- IC50 [1]: < 100 nM
- EC50 [2]: < 100 nM

Structure (SMILES): Cc1cc(O)cc(C)c1C[C@@H](CNC(=O)c1cc2ccccc2cn1)N(C)C [Compound C-35]
- IC50 [1]: < 100 nM
- EC50 [2]: < 100 nM

Structure (SMILES): Cc1cc(O)cc(C)c1C[C@@H](CNC(=O)c1ccc(C(F)(F)F)c(F)c1)N(C)C [Compound C-30]
- IC50 [1]: < 100 nM
- EC50 [2]: < 100 nM

Structure (SMILES): CCN(CC)[C@H](CNC(=O)c1ccc(Cl)c(Cl)c1)Cc1ccc2[nH]ncc2c1 [Compound C-64]
- IC50 [1]: < 100 nM
- EC50 [2]: < 100 nM

Structure (SMILES): Cc1ccc(C(=O)NC[C@H](Cc2ccc(O)cc2Cl)N(C)C)cc1C [Compound C-2, (S)—N-(3-(2-Chloro-4-hydroxyphenyl)-2-(dimethylamino)propyl)-3,4-dimethylbenzenamide]
- IC50 [1]: < 100 nM

Structure (SMILES): CN(C)[C@H](CNC(=O)[C@H]1C[C@@]1(C)c1ccccc1)Cc1ccc(O)cc1 [Compound B-58, (1S,2R)—N—((S)-2-(dimethylamino)-3-(4-hydroxyphenyl)propyl)-2-methyl-2-phenylcyclopropane-1-carboxamide]
- EC50 [3, 5]: 100 to 1000 nM
- IC50 ([4]; read-out: kOR cAMP IC50, CHO-K1 cells expressing kOR): > 1000 nM

Structure (SMILES): C[C@@]1(c2ccccc2)C[C@H]1C(=O)NC[C@@H]1Cc2ccc(O)cc2N1 [Compound B-16, (1R,2R)—N—(((S)-6-hydroxyindolin-2-yl)methyl)-2-methyl-2-phenylcyclopropane-1-carboxamide]
- EC50 [3]: > 1000 nM
- IC50 [4, 6]: > 1000 nM

Structure (SMILES): Cc1cc(O)cc(C)c1C[C@@H](CNC(=O)c1ccc(C(F)(F)F)cc1)N(C)C [Compound C-32, (S)—N-(2-(dimethylamino)-3-(4-hydroxy-2,6-dimethylphenyl)propyl)-4-(trifluoromethyl)benzamide]
- IC50 [1]: 100 to 1000 nM
- EC50 [2]: < 100 nM

Structure (SMILES): CN(C)[C@H](CNC(=O)[C@@H]1C[C@]1(C)c1ccccc1)Cc1ccc(O)cc1 [Compound B-12, (1R,2S)—N—((S)-2-(dimethylamino)-3-(4-hydroxyphenyl)propyl)-2-methyl-2-phenylcyclopropane-1-carboxamide]
- EC50 [3]: > 1000 nM
- IC50 [4, 7]: < 100 nM

Structure (SMILES): CN(C)[C@H](CNC(=O)c1ccc(Cl)c(Cl)c1)Cc1ccc(O)cc1Cl [Compound C-7, (S)-3,4-Dichloro-N-(3-(2-chloro-4-hydroxyphenyl)-2-(dimethylamino)propyl)benzamide]
- IC50 [1]: < 100 nM

Structure (SMILES): C[C@H](OC(=O)NC[C@@H](N)Cc1ccc(C(N)=O)cc1)c1ccccc1 [Compound A-2, (S)-1-phenylethyl ((S)-2-amino-3-(4-carbamoylphenyl)propyl)carbamate]
- EC50 [3]: > 1000 nM
- IC50 [4, 6]: > 1000 nM

Structure (SMILES): O=C(NC[C@@H]1Cc2ccc(O)cc2CN1)c1ccc(Cl)c(Cl)c1 [Compound C-60, (S)-3,4-dichloro-N-((7-hydroxy-1,2,3,4-tetrahydroisoquinolin-3-yl)methyl)benzamide]
- IC50 [1]: < 100 nM
- EC50 [2]: < 100 nM

Structure (SMILES): CN1Cc2cc(O)ccc2C[C@H]1CNC(=O)c1ccc(Cl)c(Cl)c1 [Compound C-54]
- IC50 [1]: < 100 nM
- EC50 [2]: < 100 nM

Structure (SMILES): Cc1cc(C(N)=O)cc(C)c1C[C@@H](CNC(=O)C[C@H](C)c1ccccc1)N(C)C [Compound A-8, 4-((S)-2-(dimethylamino)-3-((S)-3-phenylbutanamido)propyl)-3,5-dimethylbenzamide]
- EC50 [3]: > 1000 nM
- IC50 [4, 6]: > 1000 nM

Structure (SMILES): Cc1cc(O)cc(C)c1C[C@@H](CNC(=O)c1ccc(Cl)c(C(F)(F)F)c1)N(C)C [Compound C-27]
- IC50 [1]: < 100 nM
- EC50 [2]: < 100 nM

Structure (SMILES): Cc1cc(O)cc(C)c1C[C@@H](CNC(=O)c1ccc2ccccc2c1)N(C)C [Compound C-33]
- IC50 [1]: < 100 nM
- EC50 [2]: < 100 nM

Structure (SMILES): C[C@]1(c2ccccc2)C[C@H]1C(=O)NC[C@H](Cc1ccc2[nH]ncc2c1)N1CCOCC1 [Compound B-43, (1R,2S)—N—((S)-3-(2H-indazol-5-yl)-2-morpholinopropyl)-2-methyl-2-phenylcyclopropane-1-carboxamide]
- EC50 [3]: > 1000 nM
- IC50 [4, 6]: > 1000 nM

Structure (SMILES): Cc1cc(O)cc(C)c1C[C@@H](CNC(=O)c1ccc2occc2c1)N(C)C [Compound C-31]
- IC50 [1]: < 100 nM
- EC50 [2]: < 100 nM

Structure (SMILES): Cc1ccc(C(=O)NC[C@H](Cc2c(C)cc(O)cc2C)N(C)C)cc1C [Compound C-28]
- IC50 [1]: < 100 nM
- EC50 [2]: < 100 nM

Structure (SMILES): CN(C)[C@H](CNC(=O)[C@@H]1C[C@H]1c1ccccc1)Cc1ccc(O)cc1 [Compound B-17, (1R,2R)—N—((S)-2-(dimethylamino)-3-(4-hydroxyphenyl)propyl)-2-phenylcyclopropane-1-carboxamide]
- EC50 [3]: < 100 nM
- IC50 [4, 7]: 100 to 1000 nM

Structure (SMILES): CNC(=O)c1ccc(C[C@@H](CNC(=O)[C@@H]2C[C@@]2(C)c2ccccc2)N(C)C)cc1F [Compound B-2, 4-((S)-2-(dimethylamino)-3-((1R,2R)-2-methyl-2-phenylcyclopropane-1-carboxamido)propyl)-2-fluoro-N-methylbenzamide]
- EC50 [3]: < 100 nM
- IC50 [4, 7]: > 1000 nM

Structure (SMILES): CN(C)[C@H](CNC(=O)C1CC1(C)c1ccccc1)Cc1ccc(C(N)=O)cc1 (stereo partly drawn) [Compound B-61, 4-((2S)-2-(dimethylamino)-3-(2-methyl-2-phenylcyclopropane-1-carboxamido)propyl)benzamide]
- EC50 [3]: < 100 nM
- IC50 [4, 7]: > 1000 nM

Structure (SMILES): CNC(=O)c1ccc(C[C@@H](CNC(=O)[C@@H]2C[C@]2(C)c2ccccc2)N(C)C)cc1F [Compound B-46, 4-((S)-2-(dimethylamino)-3-((1R,2S)-2-methyl-2-phenylcyclopropane-1-carboxamido)propyl)-2-fluoro-N-methylbenzamide]
- EC50 [3]: < 100 nM
- IC50 [4, 7]: > 1000 nM

Structure (SMILES): CN(C)[C@H](CNC(=O)[C@@H]1C[C@@]1(C)c1ccccc1)Cc1ccc(C(N)=O)cc1Cl [Compound B-6, 3-chloro-4-((S)-2-(dimethylamino)-3-((1R,2R)-2-methyl-2-phenylcyclopropane-1-carboxamido)propyl)benzamide]
- EC50 [3]: < 100 nM
- IC50 [4, 7]: 100 to 1000 nM

Structure (SMILES): CN(C)[C@H](CNC(=O)N[C@H](c1ccccc1)C1CC1)Cc1ccc(C(N)=O)cc1 [Compound A-4, 4-((S)-3-(3-((S)-cyclopropyl(phenyl)methyl)ureido)-2-(dimethylamino)propyl)benzamide]
- EC50 [3]: < 100 nM
- IC50 [4, 7]: < 100 nM

Structure (SMILES): CN(C)[C@H](CNC(=O)[C@@H]1C[C@@]1(C)c1ccccc1)Cc1ccc(C(N)=O)cc1Cl [Compound B-60, 3-chloro-4-((S)-2-(dimethylamino)-3-((1R,2R)-2-methyl-2-phenylcyclopropane-1-carboxamido)propyl)benzamide]
- EC50 [3, 5]: < 100 nM
- IC50 [4, 7]: < 100 nM

Structure (SMILES): CN(C)[C@H](CNC(=O)[C@@H]1C[C@@]1(C)c1ccccc1)Cc1ccc(O)cc1 [Compound B-62, (1R,2R)—N—((S)-2-(dimethylamino)-3-(4-hydroxyphenyl)propyl)-2-methyl-2-phenylcyclopropane-1-carboxamide]
- EC50 [3]: < 100 nM
- IC50 [4, 7]: 100 to 1000 nM

Structure (SMILES): CN(C)[C@H](CNC(=O)[C@@H]1C[C@@]1(C)c1ccccc1)Cc1ccc2[nH]ncc2c1 [Compound B-20, (1R,2R)—N—((S)-2-(dimethylamino)-3-(1H-indazol-5-yl)propyl)-2-methyl-2-phenylcyclopropane-1-carboxamide]
- EC50 [3]: < 100 nM
- IC50 [4, 7]: > 1000 nM

Structure (SMILES): CC(=O)Oc1cc(C)c(C[C@@H](CNC(=O)c2ccc(Cl)c(Cl)c2)N(C)C)c(C)c1 [Compound C-56, (S)-4-(3-(3,4-dichlorobenzamido)-2-(dimethylamino)propyl)-3,5-dimethylphenyl acetate]
- IC50 [1]: < 100 nM

Structure (SMILES): Cc1cc(C(N)=O)cc(C)c1C[C@H](N)CNC(=O)O[C@@H](C)c1ccccc1 [Compound A-5, (S)-1-phenylethyl ((S)-2-amino-3-(4-carbamoyl-2,6-dimethylphenyl)propyl)carbamate]
- EC50 [3]: 100 to 1000 nM
- IC50 [4, 7]: < 100 nM

Structure (SMILES): CN(C)[C@H](CNC(=O)[C@H]1C[C@@]1(C)c1ccccc1)Cc1ccc(C(N)=O)cc1 [Compound B-4, 4-((S)-2-(dimethylamino)-3-((1S,2R)-2-methyl-2-phenylcyclopropane-1-carboxamido)propyl)benzamide]
- EC50 [3]: < 100 nM
- IC50 [4, 7]: 100 to 1000 nM

Structure (SMILES): CN(C)[C@H](CNC(=O)[C@@H]1C[C@]1(C)c1ccccc1)Cc1ccc2[nH]c(=O)oc2c1 [Compound B-49, (1R,2S)—N—((S)-2-(dimethylamino)-3-(2-oxo-2,3-dihydrobenzo[d]oxazol-6-yl)propyl)-2-methyl-2-phenylcyclopropane-1-carboxamide]
- EC50 [3]: < 100 nM
- IC50 [4, 7]: > 1000 nM

Structure (SMILES): CN(C)[C@H](CNC(=O)[C@@H]1C[C@]1(C)c1ccccc1)Cc1ccc2[nH]ncc2c1 [Compound B-19, (1R,2S)—N—((S)-2-(dimethylamino)-3-(1H-indazol-5-yl)propyl)-2-methyl-2-phenylcyclopropane-1-carboxamide]
- EC50 [3]: < 100 nM
- IC50 [4, 7]: > 1000 nM

Structure (SMILES): CN(C)[C@H](CNC(=O)c1cc(F)c(Cl)c(F)c1)Cc1ccc(O)cc1Cl [Compound C-1]
- IC50 [1]: < 100 nM

Structure (SMILES): CN(C)[C@H](CNC(=O)c1ccc(Br)c(Cl)c1)Cc1ccc(O)cc1Cl [Compound C-8, (S)-4-bromo-3-chloro-N-(3-(2-chloro-4-hydroxyphenyl)-2-(dimethylamino)propyl)benzamide]
- IC50 [1]: < 100 nM
